Measured values: patent US20230374038A1, “MODULATORS OF CYSTIC FIBROSIS TRANSMEMBRANE CONDUCTANCE REGULATOR” (VERTEX PHARMACEUTICALS INCORPORATED, priority 2020, published 2023)

Target: CFTR (Homo sapiens, UniProt P13569)
Assay: Membrane Potential Dye, Enteroid Assay B
Format: cell-based
Details: for EC50: read-out: Ent. B EC50
Outline: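 Human intestinal enteroids seeded at 5000 cells/well, treated with compound 18-24 h at 37 °C, then loaded 25 min with methyl oxonol membrane-potential dye plus CaCC blockers. Chloride transport started in chloride-free buffer with 10 μM forskolin, 100 μM IBMX and 300 nM Compound III, read 15 min; expressed as % of triple-combination control.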

Sequence of CFTR (P13569 with tags, fused parts or gaps DEL508-508): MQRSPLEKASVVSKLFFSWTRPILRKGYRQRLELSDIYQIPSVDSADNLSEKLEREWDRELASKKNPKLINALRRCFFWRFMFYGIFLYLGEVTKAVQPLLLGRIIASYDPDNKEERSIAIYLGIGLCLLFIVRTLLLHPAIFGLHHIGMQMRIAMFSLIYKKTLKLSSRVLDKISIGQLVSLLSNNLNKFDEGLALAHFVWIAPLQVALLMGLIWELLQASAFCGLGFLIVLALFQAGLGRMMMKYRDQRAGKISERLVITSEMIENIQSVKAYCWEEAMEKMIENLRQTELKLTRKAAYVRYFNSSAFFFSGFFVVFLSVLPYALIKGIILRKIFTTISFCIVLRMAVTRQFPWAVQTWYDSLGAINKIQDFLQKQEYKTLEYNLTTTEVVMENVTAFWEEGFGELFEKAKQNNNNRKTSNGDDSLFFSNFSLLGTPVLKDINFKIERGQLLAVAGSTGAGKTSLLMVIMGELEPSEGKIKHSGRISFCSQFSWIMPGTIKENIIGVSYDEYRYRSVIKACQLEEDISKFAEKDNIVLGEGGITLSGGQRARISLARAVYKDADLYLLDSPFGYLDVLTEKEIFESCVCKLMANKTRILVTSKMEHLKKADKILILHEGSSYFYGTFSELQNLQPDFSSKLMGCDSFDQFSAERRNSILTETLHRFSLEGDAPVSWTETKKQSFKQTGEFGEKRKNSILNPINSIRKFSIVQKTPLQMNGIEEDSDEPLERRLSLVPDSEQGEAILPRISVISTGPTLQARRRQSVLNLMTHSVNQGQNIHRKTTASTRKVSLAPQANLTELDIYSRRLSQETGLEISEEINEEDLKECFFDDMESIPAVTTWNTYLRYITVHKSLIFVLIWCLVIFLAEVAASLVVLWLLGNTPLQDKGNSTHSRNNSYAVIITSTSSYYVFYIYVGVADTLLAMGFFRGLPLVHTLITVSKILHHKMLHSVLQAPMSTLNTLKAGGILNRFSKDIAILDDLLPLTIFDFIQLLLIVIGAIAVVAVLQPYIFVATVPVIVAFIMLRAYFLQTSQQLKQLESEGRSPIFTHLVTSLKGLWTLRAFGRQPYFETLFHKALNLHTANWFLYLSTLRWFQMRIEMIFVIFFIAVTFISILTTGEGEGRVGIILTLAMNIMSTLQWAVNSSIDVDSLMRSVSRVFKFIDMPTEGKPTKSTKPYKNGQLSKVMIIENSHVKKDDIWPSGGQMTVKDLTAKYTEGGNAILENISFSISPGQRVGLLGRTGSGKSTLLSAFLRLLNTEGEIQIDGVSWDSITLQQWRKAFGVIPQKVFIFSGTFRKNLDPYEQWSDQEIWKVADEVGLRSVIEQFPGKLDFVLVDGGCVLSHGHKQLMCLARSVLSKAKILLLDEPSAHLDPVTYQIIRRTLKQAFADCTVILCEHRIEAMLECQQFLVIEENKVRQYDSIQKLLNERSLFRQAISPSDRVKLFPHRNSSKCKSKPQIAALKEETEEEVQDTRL

| Ent. B Max Activity | EC50 [nM] | SMILES |
| --- | --- | --- |
| +++ (+++ is >60%) | < 1000 | CCc1c2nc(nc1-c1c(C)cccc1C)NS(=O)(=O)c1cccc(c1)C(=O)N(C1CC3(CC3)C1)[C@H](CC(C)(C)C)CO2 [Compound 188] |
| +++ (+++ is >60%) | < 1000 | Cc1cccc(C)c1-c1nc2nc(c1C)OC[C@@H](CC(C)C)N(C1CC3(CCN(C)CC3)C1)C(=O)c1cccc(c1)S(=O)(=O)N2 [Compound 74] |
| ++ (++ is 30-60%) | 3000 to 30000 | Cc1cccc(C)c1-c1nc2nc(c1C)OCCNC(=O)c1cccc(c1)S(=O)(=O)N2 [Compound 35, 6-(2,6-Dimethylphenyl)-7-methyl-9-oxa-2λ^6-thia-3,5,12,19-tetraazatricyclo[12.3.1.14,8]nonadeca-1(18),4,6,8(19),14,16-hexaene-2,2,13-trione] |
| + (+ is <30%) |  | Cc1cccc(C)c1-c1nc2nc(c1-c1cnn(C)c1)O[C@H](C)CNC(=O)c1cccc(c1)S(=O)(=O)N2 [Compound 128] |
| ++ (++ is 30-60%) | 1000 to 3000 | Cc1cccc(C)c1-c1nc2nc(c1C)OC[C@@H](CCC(C)(C)O)N(Cc1ccc(C(C)(C)O)cc1)C(=O)c1cccc(c1)S(=O)(=O)N2 [Compound 112] |
| +++ (+++ is >60%) | < 1000 | Cc1cccc(C)c1-c1nc2nc(c1C)OC[C@@H](CC(C)(C)C)N(C1CC3(CC(N(C)C)C3)C1)C(=O)c1cccc(c1)S(=O)(=O)N2 (stereo partly shown) [Compound 94] |
| ++ (++ is 30-60%) | 1000 to 3000 | Cc1cccc(C)c1-c1nc2nc(c1C)O[C@H](C)CNC(=O)c1cccc(c1)S(=O)(=O)N2 [Compound 202] |
| +++ (+++ is >60%) | < 1000 | CCc1c2nc(nc1-c1c(C)cccc1C)NS(=O)(=O)c1cccc(c1)C(=O)N[C@@H]1CN(C3CC4(CCCCC4)C3)C[C@H]1O2 [Compound 115] |
| +++ (+++ is >60%) | < 1000 | Cc1cccc(C)c1-c1nc2nc(c1C)OC[C@@H](CC(C)(C)C)N(C1CC3(CC(NC(=O)OC(C)(C)C)C3)C1)C(=O)c1cccc(c1)S(=O)(=O)N2 (single isomer, unassigned) [Compound 60] |
| +++ (+++ is >60%) | < 1000 | Cc1cccc(C)c1-c1nc2nc(c1C)OC[C@@H](CC(C)(C)C)N(C1CC3(CCN(C(=O)OC(C)C)CC3)C1)C(=O)c1cccc(c1)S(=O)(=O)N2 [Compound 77] |
| +++ (+++ is >60%) | < 1000 | Cc1cccc(C)c1-c1nc2nc(c1CCC(C)(C)C)O[C@H](C)CNC(=O)c1cccc(c1)S(=O)(=O)N2 [Compound 120, (10R)-7-(3,3-Dimethylbutyl)-6-(2,6-dimethylphenyl)-10-methyl-2,2-dioxo-9-oxa-2λ^6-thia-3,5,12,19-tetrazatricyclo[12.3.1.14,8]nonadeca-1(18),4(19),5,7,14,16-hexaen-13-one] |
| +++ (+++ is >60%) | < 1000 | Cc1cccc(C)c1-c1nc2nc(c1C)OC[C@@H](CC(C)(C)C)N(C1CC3(CC(N)C3)C1)C(=O)c1cccc(c1)S(=O)(=O)N2 (stereo partly shown) [Compound 96] |
| +++ (+++ is >60%) | < 1000 | Cc1cccc(C)c1-c1nc2nc(c1C)OC[C@@H](CC(C)(C)C)N(C1CC3(CC(N)C3)C1)C(=O)c1cccc(c1)S(=O)(=O)N2 (single isomer, unassigned) [Compound 63] |
| +++ (+++ is >60%) | 3000 to 30000 | Cc1cccc(C)c1-c1nc2nc(c1C)OC[C@@H](CC(C)(C)O)NC(=O)c1cccc(c1)S(=O)(=O)N2 [Compound 105, (11R)-6-(2,6-Dimethylphenyl)-11-(2-hydroxy-2-methyl-propyl)-7-methyl-2,2-dioxo-9-oxa-2λ^6-thia-3,5,12,19-tetrazatricyclo[12.3.1.14,8]nonadeca-1(18),4(19),5,7,14,16-hexaen-13-one] |
| +++ (+++ is >60%) | < 1000 | COC(=O)NC1CC2(C1)CC(N1C(=O)c3cccc(c3)S(=O)(=O)Nc3nc(c(C)c(-c4c(C)cccc4C)n3)OC[C@H]1CC(C)(C)C)C2 (single isomer, unassigned) [Compound 61] |
| +++ (+++ is >60%) | < 1000 | [H][C@]1(N2C(=O)c3cccc(c3)S(=O)(=O)Nc3nc(c(C)c(-c4c(C)cccc4C)n3)OC[C@H]2CC(C)(C)C)C[C@@]2(C[C@H](C(C)(C)O)C2)C1 (single isomer, unassigned) [Compound 57] |
| +++ (+++ is >60%) | < 1000 | Cc1cccc(C)c1-c1nc2nc(c1C)OC[C@@H](CC1(C(F)(F)F)CC1)NC(=O)c1cccc(c1)S(=O)(=O)N2 [Compound 103] |
| + (+ is <30%) | < 1000 | Cc1cccc(C)c1-c1nc2nc(c1C)OCCCN(C1CC3(CC(NC(=O)OC(C)(C)C)C3)C1)C(=O)c1cccc(c1)S(=O)(=O)N2 (stereo not shown) [Compound 38] |

| Ent. B Max Activity | EC50 [nM] | SMILES |
| --- | --- | --- |
| + (+ is <30%) | 3000 to 30000 | Cc1cccc(C)c1-c1nc2nc(c1-c1ccccn1)O[C@H](C)CNC(=O)c1cccc(c1)S(=O)(=O)N2 [Compound 154] |
| +++ (+++ is >60%) | 3000 to 30000 | Cc1cccc(C)c1-c1nc2nc(c1C#N)OC[C@@H](CC(C)C)NC(=O)c1cccc(c1)S(=O)(=O)N2 [Compound 169, (11R)-6-(2,6-Dimethylphenyl)-11-isobutyl-2,2,13-trioxo-9-oxa-2λ^6-thia-3,5,12,19-tetrazatricyclo[12.3.1.14,8]nonadeca-1(18),4(19),5,7,14,16-hexaene-7-carbonitrile] |
| + (+ is <30%) |  | Cc1cccc(C)c1-c1nc2nc(c1-c1ccncc1)OC[C@@H](C)NC(=O)c1cccc(c1)S(=O)(=O)N2 [Compound 145] |
| + (+ is <30%) |  | Cc1cccc(C)c1-c1nc2nc(c1-c1ccn(C)n1)OC[C@@H](C)NC(=O)c1cccc(c1)S(=O)(=O)N2 [Compound 137] |
| +++ (+++ is >60%) | < 1000 | Cc1cccc(C)c1-c1nc2nc(c1OC(C)C)OC[C@@H](CC(C)C)N(C1CC3(CC3)C1)C(=O)c1cccc(c1)S(=O)(=O)N2 [Compound 189] |
| +++ (+++ is >60%) | < 1000 | Cc1cccc(C)c1-c1nc2nc(c1C)OC[C@@H](CC(C)C)N([C@H]1C[C@@]3(C[C@H](N(C)C)C3)C1)C(=O)c1cccc(c1)S(=O)(=O)N2 (single isomer, unassigned) [Compound 53] |
| + (+ is <30%) |  | Cc1cccc(C)c1-c1nc2nc(c1-c1cnn(C)c1)OC[C@@H](C)NC(=O)c1cccc(c1)S(=O)(=O)N2 [Compound 146] |
| +++ (+++ is >60%) | < 1000 | Cc1cccc(C)c1-c1nc2nc(c1C)OC[C@@H](CC(C)(C)C)NC(=O)c1cccc(c1)S(=O)(=O)N2 [Compound 102] |
| +++ (+++ is >60%) | < 1000 | COCCN1CCC2(CC1)CC(N1C(=O)c3cccc(c3)S(=O)(=O)Nc3nc(c(OC)c(-c4c(C)cccc4C)n3)OC[C@H]1CC(C)C)C2 [Compound 166, (11R)-6-(2,6-dimethylphenyl)-11-isobutyl-7-methoxy-12-[7-(2-methoxyethyl)-7-azaspiro[3.5]nonan-2-yl]-2,2-dioxo-9-oxa-2λ^6-thia-3,5,12,19-tetrazatricyclo[12.3.1.14,8]nonadeca-1(18),4(19),5,7,14,16-hexaen-13-one] |
| +++ (+++ is >60%) | < 1000 | COC1CC(N2C(=O)c3cccc(c3)S(=O)(=O)Nc3nc(c(C)c(-c4c(C)cccc4C)n3)OC[C@H]2CC2(C(F)(F)F)CC2)C1 (stereo partly shown) [Compound 100] |
| +++ (+++ is >60%) | < 1000 | COc1c2nc(nc1-c1c(C)cccc1C)NS(=O)(=O)c1cccc(c1)C(=O)N[C@H](CC(C)C)CO2 [Compound 180] |
| ++ (++ is 30-60%) | < 1000 | Cc1cccc(C)c1-c1nc2nc(c1C)OC[C@@H](CC(C)C)N([C@H]1C[C@@H](OC(C)C)C1)C(=O)c1cccc(c1)S(=O)(=O)N2 (single isomer, unassigned) [Compound 47] |
| +++ (+++ is >60%) | < 1000 | COC1CC(N2C(=O)c3cccc(c3)S(=O)(=O)Nc3nc(c(C)c(-c4c(C)cccc4C)n3)OC[C@H]2CC(C)C)C1 (stereo in doubt) [Compound 72] |
| +++ (+++ is >60%) | < 1000 | Cc1cccc(C)c1-c1nc2nc(c1C)OC[C@@H](CC(C)C)N([C@H]1C[C@@H](OC(C)C)C1)C(=O)c1cccc(c1)S(=O)(=O)N2 (single isomer, unassigned) [Compound 48] |
| +++ (+++ is >60%) | < 1000 | COC1CC(N2C(=O)c3cccc(c3)S(=O)(=O)Nc3nc(c(C)c(-c4c(C)cccc4C)n3)OC[C@H]2CC2(C(F)(F)F)CC2)C1 (stereo partly shown) [Compound 99] |
| +++ (+++ is >60%) | < 1000 | Cc1cccc(C)c1-c1nc2nc(c1C)OC(c1ccc(CC3(C(F)(F)F)CC3)cn1)CN(C)C(=O)c1cccc(c1)S(=O)(=O)N2 (stereo not shown) [Compound 203] |
| +++ (+++ is >60%) | < 1000 | Cc1cccc(C)c1-c1nc2nc(c1C)OC[C@@H](CC(C)(C)C)N(C1CC3(CCN(C(=O)OC(C)(C)C)CC3)C1)C(=O)c1cccc(c1)S(=O)(=O)N2 [Compound 82] |
| ++ (++ is 30-60%) | < 1000 | Cc1cccc(C)c1-c1nc2nc(c1C#N)OC[C@@H](CC(C)C)N(C1CC3(CC3)C1)C(=O)c1cccc(c1)S(=O)(=O)N2 [Compound 174] |

| SMILES | Ent. B Max Activity | EC50 [nM] |
| --- | --- | --- |
| Cc1cccc(C)c1-c1nc2nc(c1C)OC[C@@H](CC(C)C)N([C@H]1C[C@@]3(C[C@H](NC(=O)OC(C)C)C3)C1)C(=O)c1cccc(c1)S(=O)(=O)N2 (single isomer, unassigned) [Compound 51] | +++ (+++ is >60%) | < 1000 |
